One block for each compound: values may come before it. The source made the active and inactive calls. The rule behind the calls is not given here.
Assays:
[1] = target: Histone deacetylase 1 (Homo sapiens, UniProt Q13547); experiment: Inhibition of human HDAC1
[2] = target: Histone deacetylase 3 (Homo sapiens, UniProt O15379); experiment: Inhibition of human HDAC3
[3] = target: T1, Protein deacetylase HDAC6 (Homo sapiens, UniProt Q9UBN7); experiment: Inhibition of human HDAC6
T1 sequence (Q9UBN7 whole entry): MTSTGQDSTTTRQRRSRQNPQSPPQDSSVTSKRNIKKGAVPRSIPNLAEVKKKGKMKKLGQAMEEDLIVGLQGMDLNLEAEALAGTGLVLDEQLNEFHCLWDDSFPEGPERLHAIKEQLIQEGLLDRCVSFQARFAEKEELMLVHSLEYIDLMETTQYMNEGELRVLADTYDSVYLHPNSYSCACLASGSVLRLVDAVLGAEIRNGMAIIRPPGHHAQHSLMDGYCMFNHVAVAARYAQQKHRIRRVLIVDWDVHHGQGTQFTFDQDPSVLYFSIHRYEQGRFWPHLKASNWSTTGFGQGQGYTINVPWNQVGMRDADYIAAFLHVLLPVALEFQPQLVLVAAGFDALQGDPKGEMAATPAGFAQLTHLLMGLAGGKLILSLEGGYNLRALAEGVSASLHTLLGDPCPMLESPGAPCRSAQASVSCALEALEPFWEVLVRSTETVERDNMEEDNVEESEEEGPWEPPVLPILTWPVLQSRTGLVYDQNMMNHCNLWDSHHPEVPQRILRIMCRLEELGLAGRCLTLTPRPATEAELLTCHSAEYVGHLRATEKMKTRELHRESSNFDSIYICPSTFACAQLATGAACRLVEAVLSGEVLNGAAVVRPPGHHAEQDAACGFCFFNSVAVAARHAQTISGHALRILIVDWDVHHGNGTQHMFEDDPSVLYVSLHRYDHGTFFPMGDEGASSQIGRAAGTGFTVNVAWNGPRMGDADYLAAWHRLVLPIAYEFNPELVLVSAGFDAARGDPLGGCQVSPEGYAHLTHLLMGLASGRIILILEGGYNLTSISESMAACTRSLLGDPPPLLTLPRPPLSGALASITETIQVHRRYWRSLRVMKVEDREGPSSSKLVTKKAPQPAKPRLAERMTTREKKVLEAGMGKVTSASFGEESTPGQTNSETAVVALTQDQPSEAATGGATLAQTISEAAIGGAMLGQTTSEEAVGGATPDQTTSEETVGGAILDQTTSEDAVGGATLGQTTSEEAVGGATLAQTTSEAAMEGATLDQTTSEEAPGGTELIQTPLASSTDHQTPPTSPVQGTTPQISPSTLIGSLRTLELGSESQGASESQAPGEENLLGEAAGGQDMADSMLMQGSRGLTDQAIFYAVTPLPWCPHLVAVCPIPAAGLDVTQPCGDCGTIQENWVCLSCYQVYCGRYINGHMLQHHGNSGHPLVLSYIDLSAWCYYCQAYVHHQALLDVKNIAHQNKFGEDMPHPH

[4] = target: Histone deacetylase 4 (Homo sapiens, UniProt P56524); experiment: Inhibition of human HDAC4
[5] = tested on: Trypanosoma brucei brucei; experiment: Antitrypanosomal activity against Trypanosoma brucei brucei 427 assessed as inhibition of parasite proliferation measured as ATP levels after 48 hrs by luciferase-based assay; format: functional, organism-based; details: Trypanosoma brucei, 427, 48 h
[6] = Tmax in iv dosed human measured under phase 1 trial; format: ADME, organism-based; details: in vivo
[7] = Half-life in po dosed human measured under phase 1 trial; format: ADME, organism-based; details: in vivo
[8] = Tmax in po dosed human measured under phase 2 trial; format: ADME, organism-based; details: in vivo
[9] = Cmax in po dosed human measured under phase 1 trial; format: ADME, organism-based; design: route oral; details: in vivo
[10] = Cmax in po dosed human measured under phase 2 trial; format: ADME, organism-based; design: route oral; details: in vivo
[11] = AUC in po dosed human measured under phase 1 trial; format: ADME, organism-based; details: in vivo
[12] = Cmax in iv dosed human measured under phase 1 trial; format: ADME, organism-based; design: route intravenous; details: in vivo
[13] = Half-life in po dosed human measured under phase 2 trial; format: ADME, organism-based; details: in vivo
[14] = Tmax in po dosed human measured under phase 1 trial; format: ADME, organism-based; details: in vivo
[15] = Half-life in iv dosed human measured under phase 1 trial; format: ADME, organism-based; details: in vivo
[16] = AUC in po dosed human measured under phase 2 trial; format: ADME, organism-based; details: in vivo
[17] = AUC in iv dosed human measured under phase 1 trial; format: ADME, organism-based; details: in vivo
[18] = Cmax in human; format: ADME, organism-based; details: in vivo
[19] = organism: Homo sapiens; experiment: Half-life in human; format: ADME, organism-based; details: in vivo
[20] = tested on: Trypanosoma brucei brucei; experiment: Trypanocidal activity against Trypanosoma brucei brucei assessed as killing of parasite densities of 10^4 to 10^6 cells/ml at 2.2 uM by clonal dilution method; format: functional, organism-based
[21] = target: T2, Histone deacetylase 11 (Homo sapiens, UniProt Q96DB2); experiment: Inhibition of human HDAC11
T2 sequence (Q96DB2 whole entry): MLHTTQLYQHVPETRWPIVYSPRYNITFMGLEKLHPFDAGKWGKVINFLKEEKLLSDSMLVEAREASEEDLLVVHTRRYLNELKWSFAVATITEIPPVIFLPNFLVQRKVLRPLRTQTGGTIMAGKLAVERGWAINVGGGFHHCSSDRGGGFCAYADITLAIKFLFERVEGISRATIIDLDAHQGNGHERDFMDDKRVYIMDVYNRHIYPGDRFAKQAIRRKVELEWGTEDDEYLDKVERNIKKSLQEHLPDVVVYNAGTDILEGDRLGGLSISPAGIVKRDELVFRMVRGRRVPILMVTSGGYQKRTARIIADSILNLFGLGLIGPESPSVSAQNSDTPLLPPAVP

[22] = target: Histone deacetylase 5 (Homo sapiens, UniProt Q9UQL6); experiment: Inhibition of human HDAC5
[23] = target: T3, Polyamine deacetylase HDAC10 (Homo sapiens, UniProt Q969S8); experiment: Inhibition of human HDAC10
T3 sequence (Q969S8 whole entry): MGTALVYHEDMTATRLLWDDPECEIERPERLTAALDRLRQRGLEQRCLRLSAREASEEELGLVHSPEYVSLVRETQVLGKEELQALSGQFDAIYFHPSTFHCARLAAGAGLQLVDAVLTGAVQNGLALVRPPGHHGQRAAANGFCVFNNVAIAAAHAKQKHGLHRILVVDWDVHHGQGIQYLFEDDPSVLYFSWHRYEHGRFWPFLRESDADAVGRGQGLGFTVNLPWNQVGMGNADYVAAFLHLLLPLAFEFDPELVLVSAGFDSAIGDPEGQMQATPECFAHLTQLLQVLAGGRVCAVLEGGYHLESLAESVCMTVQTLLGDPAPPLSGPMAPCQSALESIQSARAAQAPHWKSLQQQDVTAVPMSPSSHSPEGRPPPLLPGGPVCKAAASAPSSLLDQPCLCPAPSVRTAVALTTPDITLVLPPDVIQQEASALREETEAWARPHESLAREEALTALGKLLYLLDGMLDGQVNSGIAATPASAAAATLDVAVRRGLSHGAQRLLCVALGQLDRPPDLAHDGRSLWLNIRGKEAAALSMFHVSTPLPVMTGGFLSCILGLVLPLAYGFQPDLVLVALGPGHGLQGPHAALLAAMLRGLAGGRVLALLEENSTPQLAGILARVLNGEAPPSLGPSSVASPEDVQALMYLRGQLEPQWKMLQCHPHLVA

[24] = target: Histone deacetylase 9 (Homo sapiens, UniProt Q9UKV0); experiment: Inhibition of human HDAC9
[25] = target: T4, Histone deacetylase 7 (Homo sapiens, UniProt Q8WUI4); experiment: Inhibition of human HDAC7
T4 sequence (Q8WUI4 whole entry): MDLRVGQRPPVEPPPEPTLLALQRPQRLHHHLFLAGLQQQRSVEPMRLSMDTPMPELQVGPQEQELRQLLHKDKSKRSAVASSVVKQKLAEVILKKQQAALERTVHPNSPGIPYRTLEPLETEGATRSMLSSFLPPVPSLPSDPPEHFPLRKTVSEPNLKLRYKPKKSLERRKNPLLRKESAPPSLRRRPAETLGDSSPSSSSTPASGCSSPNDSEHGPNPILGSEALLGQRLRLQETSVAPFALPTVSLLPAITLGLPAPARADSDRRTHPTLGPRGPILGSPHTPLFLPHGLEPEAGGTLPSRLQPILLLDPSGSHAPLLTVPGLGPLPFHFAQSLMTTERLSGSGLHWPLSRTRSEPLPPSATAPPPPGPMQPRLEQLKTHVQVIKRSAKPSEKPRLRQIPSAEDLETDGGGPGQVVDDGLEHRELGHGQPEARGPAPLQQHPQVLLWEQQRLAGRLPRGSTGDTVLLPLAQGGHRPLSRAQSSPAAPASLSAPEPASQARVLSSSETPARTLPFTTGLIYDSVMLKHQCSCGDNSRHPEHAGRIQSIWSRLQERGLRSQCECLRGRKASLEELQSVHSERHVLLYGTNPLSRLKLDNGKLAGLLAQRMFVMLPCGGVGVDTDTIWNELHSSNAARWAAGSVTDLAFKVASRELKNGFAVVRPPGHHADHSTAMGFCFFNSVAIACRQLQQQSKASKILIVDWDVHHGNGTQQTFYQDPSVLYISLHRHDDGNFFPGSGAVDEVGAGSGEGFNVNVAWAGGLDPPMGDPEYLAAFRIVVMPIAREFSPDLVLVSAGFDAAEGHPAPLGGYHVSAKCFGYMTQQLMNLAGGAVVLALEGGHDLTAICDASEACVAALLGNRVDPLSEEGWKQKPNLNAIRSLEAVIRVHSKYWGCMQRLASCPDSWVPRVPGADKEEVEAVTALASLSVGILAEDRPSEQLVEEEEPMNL

[26] = target: Histone deacetylase 2 (Homo sapiens, UniProt Q92769); experiment: Inhibition of human HDAC2
Sequence of Histone deacetylase 2 (Q92769 whole entry): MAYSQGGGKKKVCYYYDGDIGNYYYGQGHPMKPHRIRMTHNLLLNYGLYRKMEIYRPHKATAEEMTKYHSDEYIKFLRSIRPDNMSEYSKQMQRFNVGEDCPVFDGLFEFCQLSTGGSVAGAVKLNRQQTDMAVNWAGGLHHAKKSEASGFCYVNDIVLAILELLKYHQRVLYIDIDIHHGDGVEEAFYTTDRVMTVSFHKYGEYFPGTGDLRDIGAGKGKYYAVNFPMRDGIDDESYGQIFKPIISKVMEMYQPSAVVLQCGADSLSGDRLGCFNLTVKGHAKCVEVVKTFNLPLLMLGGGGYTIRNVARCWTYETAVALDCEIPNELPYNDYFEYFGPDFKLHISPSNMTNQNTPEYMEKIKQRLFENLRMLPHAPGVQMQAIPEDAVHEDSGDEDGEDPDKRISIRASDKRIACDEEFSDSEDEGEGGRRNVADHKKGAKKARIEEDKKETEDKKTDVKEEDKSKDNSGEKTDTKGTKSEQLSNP

Sequence of Histone deacetylase 5 (Q9UQL6 whole entry): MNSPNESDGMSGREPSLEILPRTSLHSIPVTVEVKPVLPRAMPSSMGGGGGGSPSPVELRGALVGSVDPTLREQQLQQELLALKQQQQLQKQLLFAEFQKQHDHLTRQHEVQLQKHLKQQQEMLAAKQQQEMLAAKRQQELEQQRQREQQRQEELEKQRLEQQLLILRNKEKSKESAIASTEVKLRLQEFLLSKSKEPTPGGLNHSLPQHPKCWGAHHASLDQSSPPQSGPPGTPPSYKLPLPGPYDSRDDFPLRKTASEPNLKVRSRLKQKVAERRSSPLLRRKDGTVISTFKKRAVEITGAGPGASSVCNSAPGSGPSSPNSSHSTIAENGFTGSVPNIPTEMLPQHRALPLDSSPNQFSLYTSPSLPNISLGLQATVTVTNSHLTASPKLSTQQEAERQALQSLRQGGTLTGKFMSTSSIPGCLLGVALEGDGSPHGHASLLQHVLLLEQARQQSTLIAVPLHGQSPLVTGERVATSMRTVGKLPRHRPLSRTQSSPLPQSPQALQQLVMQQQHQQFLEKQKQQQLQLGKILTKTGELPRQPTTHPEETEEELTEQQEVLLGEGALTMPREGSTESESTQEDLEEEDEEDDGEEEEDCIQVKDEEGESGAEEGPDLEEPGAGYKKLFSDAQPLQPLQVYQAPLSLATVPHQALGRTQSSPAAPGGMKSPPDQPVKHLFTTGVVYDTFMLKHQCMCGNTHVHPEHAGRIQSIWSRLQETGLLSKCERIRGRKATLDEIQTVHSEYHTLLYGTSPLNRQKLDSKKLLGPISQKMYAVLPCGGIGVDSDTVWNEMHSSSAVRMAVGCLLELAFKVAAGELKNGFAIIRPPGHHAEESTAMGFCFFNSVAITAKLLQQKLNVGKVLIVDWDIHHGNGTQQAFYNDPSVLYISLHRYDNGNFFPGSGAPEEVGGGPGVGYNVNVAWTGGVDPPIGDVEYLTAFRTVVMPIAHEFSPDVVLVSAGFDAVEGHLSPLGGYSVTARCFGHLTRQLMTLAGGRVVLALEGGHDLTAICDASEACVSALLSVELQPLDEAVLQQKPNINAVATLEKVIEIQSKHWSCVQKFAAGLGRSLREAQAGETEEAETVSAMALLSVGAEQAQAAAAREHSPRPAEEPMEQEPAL
Sequence of Histone deacetylase 1 (Q13547 whole entry): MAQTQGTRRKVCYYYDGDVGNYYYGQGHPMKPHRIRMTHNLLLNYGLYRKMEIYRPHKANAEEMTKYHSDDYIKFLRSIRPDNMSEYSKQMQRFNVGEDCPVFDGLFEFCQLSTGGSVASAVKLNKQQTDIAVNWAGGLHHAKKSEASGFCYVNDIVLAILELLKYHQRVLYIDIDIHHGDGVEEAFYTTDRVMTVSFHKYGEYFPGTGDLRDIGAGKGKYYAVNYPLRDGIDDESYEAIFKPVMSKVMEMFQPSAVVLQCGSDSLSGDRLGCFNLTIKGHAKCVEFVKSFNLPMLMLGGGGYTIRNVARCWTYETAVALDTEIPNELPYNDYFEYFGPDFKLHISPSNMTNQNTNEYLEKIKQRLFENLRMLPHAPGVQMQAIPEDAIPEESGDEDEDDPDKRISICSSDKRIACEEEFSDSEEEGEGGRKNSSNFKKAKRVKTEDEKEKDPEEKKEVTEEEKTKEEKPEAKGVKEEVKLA
Sequence of Histone deacetylase 4 (P56524 whole entry): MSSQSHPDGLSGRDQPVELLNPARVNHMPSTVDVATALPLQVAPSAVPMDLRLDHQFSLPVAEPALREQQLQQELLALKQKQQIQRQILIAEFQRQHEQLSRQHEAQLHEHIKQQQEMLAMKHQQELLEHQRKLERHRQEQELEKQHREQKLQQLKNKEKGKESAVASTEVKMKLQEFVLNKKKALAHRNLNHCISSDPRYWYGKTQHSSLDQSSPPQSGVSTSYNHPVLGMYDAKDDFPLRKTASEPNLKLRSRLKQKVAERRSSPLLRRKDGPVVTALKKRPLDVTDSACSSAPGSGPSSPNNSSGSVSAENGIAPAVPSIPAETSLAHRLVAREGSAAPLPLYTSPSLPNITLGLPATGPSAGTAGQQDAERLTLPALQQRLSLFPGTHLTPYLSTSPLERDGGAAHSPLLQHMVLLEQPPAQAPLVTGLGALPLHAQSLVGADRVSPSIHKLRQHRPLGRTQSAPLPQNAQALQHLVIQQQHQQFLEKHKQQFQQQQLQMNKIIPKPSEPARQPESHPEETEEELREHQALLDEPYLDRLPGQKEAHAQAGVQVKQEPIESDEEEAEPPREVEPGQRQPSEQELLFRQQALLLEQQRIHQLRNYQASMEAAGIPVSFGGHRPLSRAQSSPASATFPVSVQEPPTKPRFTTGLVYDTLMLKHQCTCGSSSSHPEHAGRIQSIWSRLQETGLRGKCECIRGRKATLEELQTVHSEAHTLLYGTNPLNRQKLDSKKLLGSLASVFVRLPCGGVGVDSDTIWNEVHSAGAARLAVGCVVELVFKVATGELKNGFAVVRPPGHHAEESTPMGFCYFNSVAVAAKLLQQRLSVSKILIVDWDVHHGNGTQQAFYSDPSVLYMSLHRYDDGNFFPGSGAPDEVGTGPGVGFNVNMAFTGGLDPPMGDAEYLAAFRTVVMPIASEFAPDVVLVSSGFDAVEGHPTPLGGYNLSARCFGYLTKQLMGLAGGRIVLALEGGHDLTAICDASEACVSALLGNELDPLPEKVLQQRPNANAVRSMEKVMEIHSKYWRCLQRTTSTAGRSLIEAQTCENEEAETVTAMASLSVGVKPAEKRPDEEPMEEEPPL
Sequence of Histone deacetylase 9 (Q9UKV0 whole entry): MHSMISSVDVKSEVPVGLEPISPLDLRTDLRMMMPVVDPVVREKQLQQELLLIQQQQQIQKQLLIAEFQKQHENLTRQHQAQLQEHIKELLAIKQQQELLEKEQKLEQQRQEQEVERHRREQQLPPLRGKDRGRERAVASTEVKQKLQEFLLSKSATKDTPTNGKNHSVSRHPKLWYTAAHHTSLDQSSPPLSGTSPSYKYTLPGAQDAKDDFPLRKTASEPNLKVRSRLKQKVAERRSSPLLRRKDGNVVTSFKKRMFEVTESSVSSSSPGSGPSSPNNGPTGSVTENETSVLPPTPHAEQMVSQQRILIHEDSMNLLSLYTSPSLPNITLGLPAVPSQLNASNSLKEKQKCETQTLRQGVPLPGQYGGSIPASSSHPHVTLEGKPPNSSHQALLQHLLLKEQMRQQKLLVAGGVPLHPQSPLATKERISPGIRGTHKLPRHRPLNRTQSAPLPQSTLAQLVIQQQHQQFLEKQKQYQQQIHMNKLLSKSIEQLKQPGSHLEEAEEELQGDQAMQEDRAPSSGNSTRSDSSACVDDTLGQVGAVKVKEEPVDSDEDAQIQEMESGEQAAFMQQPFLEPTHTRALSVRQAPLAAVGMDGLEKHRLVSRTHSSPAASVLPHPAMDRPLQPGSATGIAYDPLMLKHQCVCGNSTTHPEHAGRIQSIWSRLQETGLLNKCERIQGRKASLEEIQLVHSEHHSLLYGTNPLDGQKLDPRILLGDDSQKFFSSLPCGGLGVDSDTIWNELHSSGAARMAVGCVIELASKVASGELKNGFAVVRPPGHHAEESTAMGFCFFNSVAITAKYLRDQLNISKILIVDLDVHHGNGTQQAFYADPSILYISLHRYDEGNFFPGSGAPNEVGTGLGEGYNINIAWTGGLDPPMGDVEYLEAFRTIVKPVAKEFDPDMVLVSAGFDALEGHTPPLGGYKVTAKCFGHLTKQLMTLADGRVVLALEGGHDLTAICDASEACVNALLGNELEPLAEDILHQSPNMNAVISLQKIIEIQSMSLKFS
Sequence of Histone deacetylase 3 (O15379 whole entry): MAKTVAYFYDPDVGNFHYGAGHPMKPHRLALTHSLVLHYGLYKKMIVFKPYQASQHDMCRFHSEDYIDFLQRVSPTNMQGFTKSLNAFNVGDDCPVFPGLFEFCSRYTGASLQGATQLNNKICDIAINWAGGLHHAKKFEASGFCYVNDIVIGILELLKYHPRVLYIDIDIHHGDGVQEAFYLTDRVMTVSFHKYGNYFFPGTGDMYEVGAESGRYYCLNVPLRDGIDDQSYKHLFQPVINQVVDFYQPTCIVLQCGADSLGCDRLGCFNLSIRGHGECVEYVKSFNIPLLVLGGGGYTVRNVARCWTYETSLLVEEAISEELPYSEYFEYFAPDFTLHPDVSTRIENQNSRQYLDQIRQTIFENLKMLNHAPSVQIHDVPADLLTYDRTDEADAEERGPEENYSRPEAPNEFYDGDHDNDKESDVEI

Ki [1]: 1.3 nM | Ki [2]: 2.7 nM | Ki [3]: 136 nM | Ki [4]: 2030 nM
SMILES: O=C(/C=C/C#Cc1cccc(NS(=O)(=O)c2ccccc2)c1)NO [OXAMFLATIN]

EC50 [5]: 1.58 µM | EC90 [5]: 4.86 µM | Tmax [6]: 30 min | half-life [7]: 768 min | Tmax [8]: 1 h | Cmax [9]: 31 nM | Cmax [10]: 191 nM | AUC [11]: 91.3 ng·h/mL | Cmax [12]: 1410 nM | half-life [13]: 900 min | Tmax [14]: 1.5 h | half-life [15]: 960 min | AUC [16]: 356 ng·h/mL | AUC [17]: 605 ng·h/mL
SMILES: Cc1[nH]c2ccccc2c1CCNCc1ccc(/C=C/C(=O)NO)cc1 [PANOBINOSTAT]

Cmax [18]: 900 nM | t1/2 [19]: 11 days
SMILES: N=C(N)c1ccc(OCCCCCOc2ccc(C(=N)N)cc2)cc1 [PENTAMIDINE]
Activity [20]: Active

EC50 [5]: 9.55 µM | Cmax [9]: 497 nM | AUC [11]: 1030 ng·h/mL | Ki [21]: 43 nM
SMILES: CCCCc1nc2cc(/C=C/C(=O)NO)ccc2n1CCN(CC)CC [PRACINOSTAT]

EC50 [5]: 0.029 µM | Cmax [9]: 3 nM | Ki [22]: 2.1 nM | AUC [11]: 9.77 ng·h/mL | Ki [23]: 0.05 nM | Ki [24]: 3.8 nM | Tmax [14]: 4 h
SMILES: Cn1cc(CNCC2CCN(c3ncc(C(=O)NO)cn3)CC2)c2ccccc21 [QUISINOSTAT]

EC50 [5]: 5 µM
SMILES: CC(/C=C/C(=O)NO)=C\[C@@H](C)C(=O)c1ccc(N(C)C)cc1 [TRICHOSTATIN]

EC50 [5]: 3.38 µM | Ki [1]: 326 nM | Ki [22]: 1920 nM | Ki [25]: 5.43 µM | Ki [26]: 1180 nM
SMILES: O=C(CCCCCCC(=O)Nc1ccc([C@H]2O[C@@H](CSc3nc(-c4ccccc4)c(-c4ccccc4)o3)C[C@@H](c3ccc(CO)cc3)O2)cc1)NO [TUBACIN]

EC50 [5]: 2.75 µM
SMILES: CN1CCc2c(c3ccccc3n2Cc2ccc(C(=O)NO)cc2)C1 [TUBASTATIN A]

Source: ChEMBL document CHEMBL3596180, “Evaluation of histone deacetylase inhibitors (HDACi) as therapeutic leads for human African trypanosomiasis (HAT)” (Bioorg Med Chem, 2015)
